Results reported in patent publication US11384182B2, “Supramolecular polymer composition and method of preparation thereof” (City University of Hong Kong, priority 2019, dated 2022).

What was measured:
[1] = release of carvacrol in air by weight loss; format: physicochemical; details: at 100 days
Experimental: The amount of carvacrol, i.e. the hydrophobic material in the composition, released in air was calculated by weight loss and is illustrated in FIG. 8C. The amount of carvacrol released in water was monitored by UV-vis scanning spectrophotometer (Shimadzu 1700), wherein

[2] = cited from earlier work

Cc1ccc(C(C)C)cc1O [carvacrol]
reduction of the original mass [1]: approximately 40%
saturation concentration in water [2]: about 3 mM
